Results reported in article PMC12838479 (Fluids and Barriers of the CNS, 2025).

Assays:
[1] = test system: human induced pluripotent stem cell (iPSC)-derived brain endothelial-like cells (iBECs); test: In vitro monolayer iBEC permeability (Transwell leakage) versus TEER; format: in vitro ADME; details: iBEC monolayers, all TEER levels
Method: In Vitro BBB model: Differentiation of iBECs: The varied TEERs of iBECs were achieved during initial experiments that optimized seeding densities for differentiation of the GM25256 iPSC line. iBECs were differentiated from the GM25256 cell line using protocols described by Hollmann et al.. These resulting iBECs have been previously characterized to have many BEC traits including expression of high TEER levels and GLUT1, CLDN5, VE-Cad, PECAM-1, ZO-1, and OCLN proteins. Briefly, iPSCs were grown in E8 Medium on Matrigel in 6-well plates. When colonies were large and nearly touching, but prior to confluence, iPSCs were washed once with DPBS (Thermo Fisher Scientific) and incubated with Accutase (Stem Cell Technologies) for 3 min to yield a single cell suspension. Cells were collected via centrifugation, resuspended in E8, and counted using a hemocytometer. […] To assess barrier properties, TEER was measured 24 h after subculture using an EVOM2 voltohmeter with an EndOhm cup chamber (World Precision Instruments). […] TEER was measured approximately every 24 h thereafter. […]
Leakage was further assessed after 1–14 days post-subculture by placing in the input medium, consisting of HESFM + 1% BSA, 0.1 µCi ^14C-sucrose and 1 million CPM ^99mTc-DTPA or 3 million CPM ^99mTc-albumin per Transwell. […] Then, the radioactivity was counted in a Tricarb beta counter (Perkin Elmer) to measure ^14C-sucrose levels. […]

BBB [2] = test: Multiple-time regression analysis of BBB uptake (Ki, Vi) in control and LPS-treated mice; format: in vivo
Source text: (§1) where t is the time between i.v. injection and blood draw, Cp is the level of radioactivity in serum (expressed as %Inj/ml), Cpt is the level of radioactivity in serum at time t, and τ is the dummy variable for time. Exposure time corrects for the clearance of the compound of interest from blood. The Y-intercept measures Vi (in units of µl/g), which is the vascular space and initial luminal binding at t = 0. Ki and Vi values are reported with their standard errors and the number of mice included in the linear portion of the regression curve. Slopes and intercepts were compared statistically with program in Prism 10.0 (GraphPad Inc, San Diego, CA). The percent of the injected dose that entered each g of brain (%Inj/g) was calculated after washout of the vascular space using the equation: […]

BBB [3] = test: Single time point (10 min) brain/serum ratio after iv co-injection in control and LPS-treated mice; details: for brain region permeability change: 10 min after iv injection, one-way ANOVA per region; for increase in brain/serum ratio (leakiness): three dose LPS vs control
Source text: (§2) Treatment with LPS: Male CD-1 mice were purchased from Charles River and studied at 8–12 weeks of age. All animal studies were approved by the Institutional Animal Care and Use Committee of the Veterans Affairs Puget Sound Health Care System, an IACUC approved institution, in compliance with the Association for Assessment and Accreditation of Laboratory Animal Care International. Lipopolysaccharide (LPS) derived from Salmonella enterica subtype typhimurium (#L6511) was purchased from Sigma Chemical Company. Mice were given IP injections of approximately 0.1 ml of saline at 0, 6, or 24 h with LPS included in no injections, in only the single 0 h injection, or in all (0, 6, and 24 h) injections at a dose of 3 mg/kg LPS. Mice were studied 28 h after the 0 h injection (4 h after the last injection).
(§3) After a specified time, the abdomen was opened and arterial blood obtained from the abdominal aorta and immediately the thorax was opened, the descending thoracic aorta was clamped, both jugular veins were severed, the left ventricle of the heart was cannulated, and 20 ml of cold LR-BSA perfused in 60 s via the left ventricle of the heart in order to wash out the vascular space of the brain. After this, brains were collected and counted in a gamma counter. […] Brain/serum ratios are expressed in units of µl/g.
(§4) In some studies, mice were studied only at 10 min after the jugular injection of radioactivity. For multiple-time regression analysis, mice were sacrificed at 1, 2, 5, 10, 15, and 30 min after the jugular injection.

BBB [4] = test: Percent of the injected dose that entered each g of brain (%Inj/g), 10 min; format: in vivo, mice; details: for %Inj/g-brain: 10 min; for increase in %Inj/g-brain: three injections of LPS vs control
Source text: as §1
where cpm/g is the level of radioactivity in the brain tissue, g is the weight of the brain tissue, and cpmi is the amount of radioactivity injected intravenously.

[5] = Single time point (10 min) brain/serum ratio after iv co-injection in control and LPS-treated mice; details: male, CD-1, mouse, in vivo
Source text: as §2, §3, §4

[6] = 10 min, DTPA and albumin co-injected

Compound	in vitro permeability (Pe) compared with simultaneously studied sucrose [1]	Vi (vascular space and initial luminal binding) (BBB [2]; control mice) [µL/g]	Vi (vascular space and initial luminal binding) (BBB [2]; single injection of LPS) [µL/g]	Vi (vascular space and initial luminal binding) (BBB [2]; three injections of LPS) [µL/g]	increase in brain/serum ratio (leakiness) (BBB [3]; [6]) [%]	%Inj/g-brain (BBB [4]; control mice) [%Inj/g-brain]	increase in %Inj/g-brain (BBB [4]) [%]	%Inj/g-brain (BBB [4]; three injections of LPS) [%Inj/g-brain]	further results
O=C(O)CN(CCN(CC(=O)O)CC(=O)O)CCN(CC(=O)O)CC(=O)O (99mTc complex, metal not drawn) [DTPA, Diethylenetriaminepentaacetic acid]	essentially identical in vitro results	1.62 ± 0.29	1.43 ± 0.334	1.487 ± 1.104	136	0.035	117	0.0760	mean percent increase in permeability of 4 sessions (BBB [3]; 3 dose injection of LPS, DTPA and sucrose co-injected): 79.2 +/- 16%; brain region permeability change (BBB [3]; 3 injections of LPS): all regions except the olfactory bulb had a significant increase; detection of BBB disruption (BBB [3]; 10 min, DTPA and albumin co-injected, LPSx1 and LPSx3): showed disruption at the single dose of LPS as well as at the three doses; control brain/serum ratio relative to albumin (BBB [3]; 10 min, simultaneous injection of DTPA and albumin, control mice): about 5 fold; % change of brain/serum ratio relative to respective Control (BBB [3]; LPSx1, Day 1): 12%; % change of brain/serum ratio relative to respective Control (BBB [3]; LPSx1, Day 2): -0.025%; % change of brain/serum ratio relative to respective Control (BBB [3]; LPSx1, Repeat Day 2): 29%; % change of brain/serum ratio relative to respective Control (BBB [3]; LPSx3, Day 1): 79%; % change of brain/serum ratio relative to respective Control (BBB [3]; LPSx3, Day 2): 57%; BBB disruption, combined data of 4 sessions (BBB [3]; one injection of LPS): did not disrupt the BBB; brain region permeability change (BBB [3]; single injection of LPS): No brain region had a statistically significant increase in permeability; increase in permeation, combined data of 4 sessions (BBB [3]; three injections of LPS): 69%
OC[C@H]1O[C@@](CO)(O[C@H]2O[C@H](CO)[C@@H](O)[C@H](O)[C@H]2O)[C@@H](O)[C@@H]1O [sucrose]		8.43 ± 1.26	16.2	14.5 ± 4.82					Kp at 10 min [5]: 0.00402 to 0.00518
bovine serum albumin	much lower penetration than sucrose at all TEER levels	0.245 ± 0.0431	0.197 ± 0.0438	0.325 ± 0.0893	111	0.026	81	0.0490	
